One data set relates to Alternaria solani. Description: In vivo preventive test on Alternaria solani (tomato). The following applies: 500 ppm of active ingredient, evaluated 7 days after inoculation. As for the experimental part:
Solvent: 49 parts by weight of N,N-dimethylformamide Emulsifier: 1 part by weight of Alkylarylpolyglycolether To produce a suitable preparation of active compound, 1 part by weight of active compound is mixed with the stated amounts of solvent and emulsifier, and the concentrate is diluted with water to the desired concentration. To test for preventive activity, young plants are sprayed with the preparation of active compound at the stated rate of application. One day after this treatment, the plants are inoculated with an aqueous spore suspension of Alternaria solani.

The nature of data set [1]: log P by HPLC on reversed-phase column (EEC Directive 79/831 Annex V.A8). In kind it is physicochemical. How it is done:
In table 1, the log P values were determined in accordance with EEC Directive 79/831 Annex V.A8 by HPLC (High Performance Liquid Chromatography) on a reversed-phase column (C18), using the method described below: Temperature: 40° C.; […]

In another data set the test system is Pyrenophora teres. Description: In vivo preventive test on Pyrenophora teres (barley). Conditions: 500 ppm of active ingredient, evaluated 7-9 days after inoculation. How it is done:
Solvent: 49 parts by weight of N,N-dimethylformamide Emulsifier: 1 part by weight of alkylaryl polyglycol ether To produce a suitable preparation of active compound, 1 part by weight of active compound is mixed with the stated amounts of solvent and emulsifier, and the concentrate is diluted with water to the desired concentration. To test for preventive activity, young plants are sprayed with the preparation of active compound at the stated rate of application. One day after this treatment, the plants are inoculated with an aqueous spore suspension of Pyrenophora teres.

The structures appear in SMILES notation.

The text below walks through data of patent US8999956B2, “N-[(het)arylalkyl)] pyrazole(thio)carboxamides and their heterosubstituted analogues” (Bayer Intellectual Property GmbH, priority 2010, dated 2015).

On to `Cn1nc(C(F)F)c(C(=O)NC(CSc2ccccc2)C2CC2)c1F` (centres unmarked) [Example 22], for which the Efficacy in the data set on Alternaria solani is reported as 95%. This compound also had a logP in data set [1] of 3.25.
In turn, `Cn1nc(C(F)F)c(C(=O)N(CCOc2ccc(-c3ccccc3)cc2)C2CC2)c1Cl` [Example 28] came in with an Efficacy in the data set with Pyrenophora teres of 90%. The compound further came in with a logP in data set [1] of 4.03.
`CN(c1ccc(Oc2ccccc2)cc1)C(CNC(=O)c1c(C(F)F)nn(C)c1Cl)C(F)(F)F` (centres unmarked) [Example 32]: the Efficacy in the data set on Pyrenophora teres was 70%; in the data set with Alternaria solani, 95%. Further, the logP in data set [1] amounted to 4.27.
For the compound `Cc1cccc(C)c1OCC(C)N(C(=O)c1c(C(F)F)nn(C)c1Cl)C1CC1` (centres unmarked) [Example 156], the Efficacy in the data set with Pyrenophora teres turned out to be 95%; with Alternaria solani it was 80%. This compound came in with a logP in data set [1] of 4.15.
Taken in the same sequence, the figures for `Cn1nc(C(F)F)c(C(=O)NC(C)(C)CCc2cccc(Cl)c2)c1Cl` [Example 83] were 95%, 95% and 4.01.
Consider `CN(C(=O)c1c(C(F)F)nn(C)c1F)C(COc1ccccc1)C1CC1` (centres unmarked) [Example 21], for which the Efficacy in the data set with Pyrenophora teres was determined as 80%; in the data set on Alternaria solani, 90%. This compound registered a logP in data set [1] of 3.08.
Regarding `Cn1nc(C(F)F)c(C(=O)NCCOc2cccc(Oc3ccccc3)c2)c1F` [Example 74], the Efficacy in the data set with Alternaria solani was 95%. This compound also had a logP in data set [1] of 3.41.
For the compound `CC(COc1ccc(Cl)cc1Cl)N(C(=O)c1c(C(F)F)nn(C)c1Cl)C1CC1` (centres unmarked) [Example 188], the Efficacy in the data set on Pyrenophora teres and in the data set on Alternaria solani was 100% in each case. The logP in data set [1] was determined as 4.41.
`CC(COc1ccccc1)NC(=O)c1c(C(F)F)nn(C)c1Cl` (centres unmarked) [Example 14] gave an Efficacy in the data set with Pyrenophora teres of 95%. The compound further had a logP in data set [1] of 2.84.
With `CC(CCc1cc(Cl)ccc1Cl)NC(=O)c1c(C(F)F)nn(C)c1Cl` (centres unmarked) [Example 171], the Efficacy in the data set with Pyrenophora teres is 100%; with Alternaria solani, 95%. This compound also yielded a logP in data set [1] of 3.87.
On to `CC(COc1ccccc1)N(C)C(=O)c1c(C(F)F)nn(C)c1F` (centres unmarked) [Example 16], for which the Efficacy in the data set with Pyrenophora teres and in the data set with Alternaria solani was 90% throughout. The compound further had a logP in data set [1] of 2.62.
Turning to `CN(C(=O)c1c(C(F)F)nn(C)c1F)C(COc1ccccc1Cl)C1CC1` (racemic) [Example 145], the Efficacy with Pyrenophora teres and with Alternaria solani was 70% throughout. In data set [1], the logP is 3.44.
For `Cn1nc(C(F)F)c(C(=O)NCCCc2ccc(Cl)cc2Cl)c1Cl` [Example 179], the Efficacy with Pyrenophora teres is 100%. In data set [1], this compound came in with a logP of 3.68.
Turning to `Cc1cccc(C)c1CC(C)CNC(=O)c1c(C(F)F)nn(C)c1Cl` (racemic) [Example 149], the figures for the Efficacy with Pyrenophora teres and in the data set on Alternaria solani were 95% and 90%, respectively. In data set [1], this compound yielded a logP of 3.63.
In the data set with Pyrenophora teres, `CN(CCCc1ccccc1Cl)C(=O)c1c(C(F)F)nn(C)c1Cl` [Example 141] came in with an Efficacy of 90%. This compound also came in with a logP in data set [1] of 3.17.
For the compound `CC(CNC(=O)c1c(C(F)F)nn(C)c1Cl)Cc1cc(Cl)ccc1Cl` (centres unmarked) [Example 164], the Efficacy with Pyrenophora teres is listed as 100%; with Alternaria solani, 95%. Further, in data set [1], the logP is 3.87.
For `Cn1nc(C(F)F)c(C(=O)NCCOc2cc(Cl)ccc2Cl)c1Cl` [Example 170], the Efficacy with Alternaria solani was found to be 90%. In addition, the logP in data set [1] is given as 3.31.
In the data set with Pyrenophora teres, `Cn1nc(C(F)F)c(C(=O)NC(C)(C)CCc2ccccc2Cl)c1Cl` [Example 147] came in with an Efficacy of 100%. Moreover, the logP in data set [1] is given as 3.99.
Consider `Cn1nc(C(F)F)c(C(=O)NCCOc2ccc(Oc3ccccc3)cc2)c1F` [Example 34], for which the Efficacy in the data set on Alternaria solani is reported as 90%. In addition, the logP in data set [1] was determined as 3.42.
Compound `CN(CCCc1ccccc1)C(=O)c1c(C(F)F)nn(C)c1Cl` [Example 5] displayed an Efficacy with Alternaria solani of 80%. In data set [1], this compound returned a logP of 2.82.
Consider `CCC(COc1cc(Cl)ccc1Cl)NC(=O)c1c(C(F)F)nn(C)c1Cl` (centres unmarked) [Example 176], for which the results for the Efficacy in the data set on Pyrenophora teres and in the data set with Alternaria solani were 95% and 80%, respectively. This compound also displayed a logP in data set [1] of 4.01.
As for `CC(C)OC1CCCC(NC(=O)c2c(C(F)F)nn(C)c2F)C1` (centres unmarked) [Example 325], in the data set with Alternaria solani, the Efficacy was determined as 95%. In addition, the logP in data set [1] came to 2.06.
Consider `Cc1ccc(SCC(C2CC2)N(C)C(=O)c2c(C(F)F)nn(C)c2F)cc1` (centres unmarked) [Example 40], for which the Efficacy was 80% in the data set on Pyrenophora teres and 95% with Alternaria solani. This compound also came in with a logP in data set [1] of 3.64.
Consider `Cn1nc(C(F)F)c(C(=O)NC2(COc3ccc(Cl)cc3)CC2)c1F` [Example 44], for which the Efficacy with Alternaria solani is 100%. For the same compound, the logP in data set [1] came out at 3.00.
`CC(C)C(CCc1ccc(Cl)cc1)NC(=O)c1c(C(F)F)nn(C)c1Cl` (centres unmarked) [Example 62] had an Efficacy with Pyrenophora teres of 80%. Further, in data set [1], the logP stood at 4.11.
In the same order, the values of `Cc1cccc(OC2CCCC2NC(=O)c2c(C(F)F)nn(C)c2Cl)c1` (centres unmarked) [Example 260] are 70% and 3.78.
Turning to `Cn1nc(C(F)F)c(C(=O)NC2(COc3ccc(Cl)cc3)CC2)c1Cl` [Example 45], the Efficacy with Alternaria solani is recorded as 95%. Moreover, the logP in data set [1] was 3.19.
As to `Cn1nc(C(F)F)c(C(=O)NC(COc2ccccc2)C2CC2)c1F` (centres unmarked) [Example 19], the Efficacy in the data set with Pyrenophora teres was determined as 89%; in the data set with Alternaria solani, 95%. In data set [1], this compound registered a logP of 3.06.
`Cn1nc(C(F)F)c(C(=O)NCCOc2ccc(C(F)(F)F)cc2)c1F` [Example 68] returned an Efficacy in the data set with Pyrenophora teres of 80%. Also, the logP in data set [1] is 3.04.
In the case of `Cn1nc(C(F)F)c(C(=O)NC(COc2ccc(Cl)cc2Cl)C2CC2)c1Cl` (centres unmarked) [Example 194], the Efficacy in the data set on Alternaria solani is 70%. The compound also displayed a logP in data set [1] of 4.18.
In the case of `CN(C(=O)c1c(C(F)F)nn(C)c1F)C(COc1ccc2ccccc2c1)C1CC1` (racemic) [Example 139], in the data set with Pyrenophora teres, the Efficacy is given as 90%. For the same compound, the logP in data set [1] is listed as 3.76.
In the same order, the values of `Cn1nc(C(F)F)c(C(=O)NC(C)(C)CCc2cccc(C(F)(F)F)c2)c1Cl` [Example 135] are 90% and 4.11.
In turn, `Cn1nc(C(F)F)c(C(=O)NCCOc2ccc(Oc3ccccc3)cc2)c1Cl` [Example 35] registered an Efficacy in the data set on Pyrenophora teres of 70%. The logP in data set [1] is given as 3.55.
As to `CC(CNC(=O)c1c(C(F)F)nn(C)c1Cl)Cc1c(F)cccc1F` (centres unmarked) [Example 158], the Efficacy in the data set on Pyrenophora teres was found to be 95%; in the data set with Alternaria solani, 80%. Further, the logP in data set [1] is on record as 3.21.
In the same order, the values of `Cn1nc(C(F)F)c(C(=O)NC(C)(C)CCc2cccc(Cl)c2)c1F` [Example 84] are 95%, 95% and 3.83.
Taken in the same sequence, the figures for `Cn1nc(C(F)F)c(C(=O)NC(COc2ccc3ccccc3c2)C2CC2)c1F` (racemic) [Example 137] were 89%, 95% and 3.74.
Consider `CC(O)C1CCCCC1NC(=O)c1c(C(F)F)nn(C)c1F` (single isomer, unassigned) [Example 341], for which the Efficacy with Alternaria solani stood at 80%. The compound also registered a logP in data set [1] of 1.72 isomer A.
Turning to `CN(C(=O)c1c(C(F)F)nn(C)c1Cl)C(CSCc1ccccc1)C1CC1` (centres unmarked) [Example 224], the Efficacy with Alternaria solani turned out to be 70%. The same compound came in with a logP in data set [1] of 3.62.
`Cn1nc(C(F)F)c(C(=O)NC2CCCC2Sc2ncccn2)c1F` (centres unmarked) [Example 258] came in with an Efficacy with Pyrenophora teres of 89%. In data set [1], this compound displayed a logP of 2.17.
`Cn1nc(C(F)F)c(C(=O)NCCOc2c(F)cccc2F)c1F` [Example 159]: in the data set with Alternaria solani, the Efficacy was 90%. In data set [1], the logP was 2.44.
`Cn1nc(C(F)F)c(C(=O)NCCOc2ccc(Cl)cc2)c1F` [Example 48] came in with an Efficacy in the data set with Alternaria solani of 90%. The logP in data set [1] is given as 2.78.
In turn, `CN(CC(NC(=O)c1c(C(F)F)nn(C)c1F)C1CC1)c1ccccc1` (centres unmarked) [Example 17] showed an Efficacy in the data set with Alternaria solani of 95%. The compound further returned a logP in data set [1] of 3.02.
On to `Cn1nc(C(F)F)c(C(=O)NCCOc2ccc(C(F)(F)F)cc2)c1Cl` [Example 69], for which the Efficacy in the data set with Alternaria solani is listed as 80%. The compound also displayed a logP in data set [1] of 3.17.
As for `CCC(COc1cc(OC)ccn1)NC(=O)c1c(C(F)F)nn(C)c1Cl` (centres unmarked) [Example 43], the Efficacy in the data set with Pyrenophora teres is recorded as 89%. This compound showed a logP in data set [1] of 1.86.
Consider `Cn1nc(C(F)F)c(C(=O)NCC(Sc2ccc(Cl)cc2)C(F)(F)F)c1Cl` (centres unmarked) [Example 47], for which the Efficacy with Alternaria solani amounted to 80%. The compound further displayed a logP in data set [1] of 3.89.
`Cn1nc(C(F)F)c(C(=O)NC2CCCCC2C(C)(C)C)c1F` (centres unmarked) [Example 349] yielded an Efficacy with Pyrenophora teres of 95%. Further, the logP in data set [1] is recorded as 3.79.
In the same order, the values of `CC(COc1ccccc1)NC(=O)c1c(C(F)F)nn(C)c1F` (centres unmarked) [Example 13] are 94% and 2.66.
Compound `Cc1ccc(C(C)CCN(C(=O)c2c(C(F)F)nn(C)c2Cl)C2CC2)o1` (centres unmarked) [Example 108] showed a logP in data set [1] of 3.56.
Consider `CCN(CC=Cc1ccccc1)C(=O)c1c(C(F)F)nn(C)c1F` [Example 264], for which the logP in data set [1] was determined as 3.02.
On the same count and under the same terms, under `CC(CCc1ncc(C(F)(F)F)cc1Cl)N(C)C(=O)c1c(C(F)F)nn(C)c1F` (centres unmarked) [Example 87] stands 3.29.
